In ChEMBL document CHEMBL4043145, “Pyridine-pyrimidine amides that prevent HGF-induced epithelial scattering by two distinct mechanisms” (Bioorg Med Chem Lett, 2017):

Assays:
[1] = test system: MDCK-II; experiment: Antimigratory activity against MDCK2 cells assessed as inhibition of HGF-induced cell scattering at 1 uM pretreated for 18 hrs followed by HGF addition measured after 20 to 24 hrs by crystal violet staining-based assay relative to control; type: functional; conditions: Canis lupus familiaris
[2] = test system: MCF7; experiment: Antiproliferative activity against human MCF7 cells at 10 uM relative to control; type: functional, cell-based
[3] = test system: BT-20; experiment: Antiproliferative activity against human BT20 cells; type: functional
[4] = Antiproliferative activity against human HER218 cells; type: functional
[5] = test system: Hs-578T; experiment: Antiproliferative activity against human Hs 578T cells; type: functional
[6] = test system: MCF7; experiment: Antiproliferative activity against human MCF7 cells; type: functional
[7] = test system: MDA-MB-231; experiment: Antiproliferative activity against human MDA-MB-231/ATCC cells; type: functional
[8] = test system: MDA-MB-468; experiment: Antiproliferative activity against human MDA-MB-468 cells; type: functional
[9] = test system: T47D; experiment: Antiproliferative activity against human T47D cells; type: functional
[10] = test system: SF-268; experiment: Antiproliferative activity against human SF268 cells; type: functional
[11] = test system: SF-539; experiment: Antiproliferative activity against human SF539 cells; type: functional
[12] = test system: SF-295; experiment: Antiproliferative activity against human SF295 cells; type: functional
[13] = test system: SNB-19; experiment: Antiproliferative activity against human SNB19 cells; type: functional
[14] = test system: U-251; experiment: Antiproliferative activity against human U251 cells; type: functional
[15] = test system: COLO 205; experiment: Antiproliferative activity against human COLO205 cells; type: functional
[16] = test system: HCC 2998; experiment: Antiproliferative activity against human HCC2998 cells; type: functional
[17] = test system: HCT-116; experiment: Antiproliferative activity against human HCT116 cells; type: functional
[18] = test system: HCT-15; experiment: Antiproliferative activity against human HCT15 cells; type: functional
[19] = test system: HT-29; experiment: Antiproliferative activity against human HT-29 cells; type: functional
[20] = test system: KM12; experiment: Antiproliferative activity against human KM12 cells; type: functional
[21] = test system: SW480; experiment: Antiproliferative activity against human SW480 cells; type: functional
[22] = test system: SW-620; experiment: Antiproliferative activity against human SW620 cells; type: functional
[23] = test system: AN3-CA; experiment: Antiproliferative activity against human AN3CA cells; type: functional
[24] = test system: HEC-1-A; experiment: Antiproliferative activity against human Hec1A cells; type: functional
[25] = test system: MFE-280; experiment: Antiproliferative activity against human MFE280 cells; type: functional
[26] = test system: MFE-296; experiment: Antiproliferative activity against human MFE296 cells; type: functional
[27] = test system: RL95-2; experiment: Antiproliferative activity against human RL95-2 cells; type: functional
[28] = test system: SK-UT-1; experiment: Antiproliferative activity against human SK-UT-1 cells; type: functional
[29] = test system: T98G; experiment: Antiproliferative activity against human T98G cells; type: functional
[30] = test system: U-87 MG; experiment: Antiproliferative activity against human U87MG cells; type: functional, U-87MG ATCC
[31] = test system: CCRF-CEM; experiment: Antiproliferative activity against human CCRF-CEM cells; type: functional
[32] = test system: HL-60(TB); experiment: Antiproliferative activity against human HL-60(TB) cells; type: functional
[33] = test system: K562; experiment: Antiproliferative activity against human K562 cells; type: functional
[34] = test system: MOLT-4; experiment: Antiproliferative activity against human MOLT4 cells; type: functional
[35] = test system: RPMI-8226; experiment: Antiproliferative activity against human RPMI8226 cells; type: functional
[36] = test system: SR; experiment: Antiproliferative activity against human SR cells; type: functional
[37] = test system: HepG2; experiment: Antiproliferative activity against human HepG2 cells; type: functional
[38] = test system: A549; experiment: Antiproliferative activity against human A549 cells; type: functional
[39] = test system: NCI-H1975; experiment: Antiproliferative activity against human NCI-H1975 cells; type: functional
[40] = test system: LOX IMVI; experiment: Antiproliferative activity against human LOXIMVI cells; type: functional
[41] = test system: M14; experiment: Antiproliferative activity against human M14 cells; type: functional
[42] = test system: Malme-3M; experiment: Antiproliferative activity against human MALME-3M cells; type: functional
[43] = test system: MDA-MB-435; experiment: Antiproliferative activity against human MDA-MB-435 cells; type: functional
[44] = test system: SK-MEL-2; experiment: Antiproliferative activity against human SK-MEL-2 cells; type: functional
[45] = test system: SK-MEL-5; experiment: Antiproliferative activity against human SK-MEL-5 cells; type: functional
[46] = test system: UACC-62; experiment: Antiproliferative activity against human UACC62 cells; type: functional
[47] = test system: A549; experiment: Antiproliferative activity against human A549/ATCC cells; type: functional
[48] = test system: HOP-62; experiment: Antiproliferative activity against human HOP62cells; type: functional
[49] = test system: HOP-92; experiment: Antiproliferative activity against human HOP92 cells; type: functional
[50] = test system: NCI-H226; experiment: Antiproliferative activity against human NCI-H226 cells; type: functional
[51] = test system: NCI-H23; experiment: Antiproliferative activity against human NCI-H23 cells; type: functional
[52] = test system: NCI-H322M; experiment: Antiproliferative activity against human NCI-H322M cells; type: functional
[53] = test system: NCI-H460; experiment: Antiproliferative activity against human NCI-H460 cells; type: functional
[54] = test system: NCI-H522; experiment: Antiproliferative activity against human NCI-H522 cells; type: functional
[55] = test system: A2780; experiment: Antiproliferative activity against human A2780 cells; type: functional, cell-based
[56] = test system: IGROV-1; experiment: Antiproliferative activity against human IGROV1 cells; type: functional
[57] = test system: NCI/ADR-RES; experiment: Antiproliferative activity against human NCI/ADR-RES cells; type: functional
[58] = test system: OVCAR-3; experiment: Antiproliferative activity against human OVCAR3 cells; type: functional
[59] = test system: OVCAR-4; experiment: Antiproliferative activity against human OVCAR4 cells; type: functional
[60] = test system: OVCAR-5; experiment: Antiproliferative activity against human OVCAR5 cells; type: functional
[61] = test system: OVCAR-8; experiment: Antiproliferative activity against human OVCAR8 cells; type: functional
[62] = test system: SK-OV-3; experiment: Antiproliferative activity against human SKOV3 cells; type: functional
[63] = test system: HPAC; experiment: Antiproliferative activity against HPAC; type: functional; conditions: Homo sapiens
[64] = test system: MIA PaCa-2; experiment: Antiproliferative activity against human MIAPaCa2 cells; type: functional
[65] = test system: PANC-1; experiment: Antiproliferative activity against human PANC1 cells; type: functional
[66] = test system: CWR22R; experiment: Antiproliferative activity against human 22Rv1 cells; type: functional
[67] = test system: DU-145; experiment: Antiproliferative activity against human DU145 cells; type: functional
[68] = test system: LNCaP; experiment: Antiproliferative activity against human LNCAP cells; type: functional
[69] = Antiproliferative activity against human NCI-H660 cells; type: functional
[70] = test system: PC-3; experiment: Antiproliferative activity against human PC3 cells; type: functional
[71] = test system: VCaP; experiment: Antiproliferative activity against human VCaP cells; type: functional
[72] = test system: 786-0; experiment: Antiproliferative activity against human 786-0 cells; type: functional
[73] = test system: A498; experiment: Antiproliferative activity against human A498 cells; type: functional
[74] = test system: ACHN; experiment: Antiproliferative activity against human ACHN cells; type: functional
[75] = test system: CAKI-1; experiment: Antiproliferative activity against human Caki1 cells; type: functional
[76] = test system: RXF 393; experiment: Antiproliferative activity against human RXF393 cells; type: functional
[77] = test system: SN12C; experiment: Antiproliferative activity against human SN12C cells; type: functional
[78] = test system: TK-10; experiment: Antiproliferative activity against human TK10 cells; type: functional
[79] = test system: UO-31; experiment: Antiproliferative activity against human UO31 cells; type: functional

In the case of O=C(Nc1ccc(-c2ccccc2)cn1)c1cncnc1, the inhibition at 1 µM [1] is reported as 238%, the EC50 [2] is reported as 74 nM and the GI50 [3] is reported as 342 nM. For the same compound, the GI50 [4] was 72 nM, the GI50 [5] was 160 nM and the GI50 [6] was 37 nM. For the same compound, the GI50 [7] was 256 nM, the GI50 [8] was 29 nM and the GI50 [9] was greater than 10000 nM. The GI50 [10] was 1020 nM, the GI50 [11] was 110 nM and the GI50 [12] was 86 nM. It also gave a GI50 [13] of 370 nM, a GI50 [14] of 113 nM and a GI50 [15] of 47 nM. It also gave a GI50 [16] of 1010 nM, a GI50 [17] of 40 nM and a GI50 [18] of 45 nM. It also gave a GI50 [19] of 38 nM, a GI50 [20] of 39 nM and a GI50 [21] of 46 nM. It also gave a GI50 [22] of 43 nM, a GI50 [23] of 53 nM and a GI50 [24] of 178 nM. The GI50 [25] was greater than 10000 nM, the GI50 [26] was 26 nM and the GI50 [27] was 86 nM. It also gave a GI50 [28] of 55 nM, a GI50 [29] of 153 nM and a GI50 [30] of 260 nM. For the same compound, the GI50 [31] was 199 nM, the GI50 [32] was 53 nM and the GI50 [33] was 46 nM. It also gave a GI50 [34] of 297 nM, a GI50 [35] of 91 nM and a GI50 [36] of 42 nM. For the same compound, the GI50 [37] was 94 nM, the GI50 [38] was 204 nM and the GI50 [39] was 271 nM. For the same compound, the GI50 [40] was 121 nM, the GI50 [41] was 44 nM and the GI50 [42] was 77 nM. It also gave a GI50 [43] of 22 nM, a GI50 [44] of 53 nM and a GI50 [45] of 43 nM. It also gave a GI50 [46] of 69 nM, a GI50 [47] of 61 nM and a GI50 [48] greater than 10000 nM. For the same compound, the GI50 [49] was 96 nM, the GI50 [50] was 613 nM and the GI50 [51] was 660 nM. For the same compound, the GI50 [52] was 512 nM, the GI50 [53] was 41 nM and the GI50 [54] was 34 nM. The EC50 [55] was 74 nM, the GI50 [55] was 40 nM and the GI50 [56] was 869 nM. It also gave a GI50 [57] of 40 nM, a GI50 [58] of 47 nM and a GI50 [59] greater than 10000 nM. It also gave a GI50 [60] of 605 nM, a GI50 [61] of 240 nM and a GI50 [62] of 315 nM. For the same compound, the GI50 [63] was 154 nM, the GI50 [64] was 194 nM and the GI50 [65] was 212 nM. For the same compound, the GI50 [66] was 150 nM, the GI50 [67] was 305 nM and the GI50 [68] was 361 nM. For the same compound, the GI50 [69] was 135 nM, the GI50 [70] was 118 nM and the GI50 [71] was 246 nM. The GI50 [72] was 591 nM, the GI50 [73] was 48 nM and the GI50 [74] was 271 nM. For the same compound, the GI50 [75] was 91 nM, the GI50 [76] was 124 nM and the GI50 [77] was 155 nM. For the same compound, the GI50 [78] was 317 nM and the GI50 [79] was 2110 nM.
